# Experimental data as given in patent US10143681B2, “Factor XIa inhibitors” (MERCK SHARP & DOHME CORP., priority 2016, dated 2018).
# What was measured:
# [1] = tested on: Human plasma (intrinsic coagulation cascade); test: Activated Partial Thromboplastin Time (aPTT) Assay; details: concentration that causes a 50% (1.5×) increase of clot time over vehicle
# In short: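 Inhibitors spiked into pooled citrated normal-donor human plasma (aPTT 28-40 seconds), run on automated coagulation analyzer: ellagic acid activation of Factor XII, then clot time after recalcification. Reported as concentration giving 50% (1.5×) prolongation over vehicle clot time.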
# [2] = biological target: Human plasma kallikrein (Homo sapiens (Human), UniProt P03952); test: Kallikrein Assay; type: biochemical; details: purified Human plasma kallikrein 0.5 nM, substrate Acetyl-K-P-R-AFC; read-out: P. KLK IC50
# Human plasma kallikrein, sequence (P03952 391-638): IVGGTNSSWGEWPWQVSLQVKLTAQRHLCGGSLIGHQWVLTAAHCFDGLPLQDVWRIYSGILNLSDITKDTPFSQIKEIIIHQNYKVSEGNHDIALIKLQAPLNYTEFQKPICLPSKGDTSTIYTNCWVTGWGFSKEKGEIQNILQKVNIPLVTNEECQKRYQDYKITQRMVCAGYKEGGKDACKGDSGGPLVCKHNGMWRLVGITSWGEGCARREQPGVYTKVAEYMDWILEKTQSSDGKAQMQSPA
# Human plasma kallikrein, sequence (P03952 20-390 partner): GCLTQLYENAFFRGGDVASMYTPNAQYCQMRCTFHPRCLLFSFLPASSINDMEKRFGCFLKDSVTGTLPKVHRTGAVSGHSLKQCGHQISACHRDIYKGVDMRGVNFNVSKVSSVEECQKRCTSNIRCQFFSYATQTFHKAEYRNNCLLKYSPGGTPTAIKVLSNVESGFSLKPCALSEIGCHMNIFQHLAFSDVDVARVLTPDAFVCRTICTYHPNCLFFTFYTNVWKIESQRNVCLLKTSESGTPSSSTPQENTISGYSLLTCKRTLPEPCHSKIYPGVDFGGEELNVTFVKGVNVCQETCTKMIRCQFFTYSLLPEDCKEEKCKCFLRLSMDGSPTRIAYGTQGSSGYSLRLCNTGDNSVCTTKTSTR
# Procedure: The effectiveness of a compound of the present invention as an inhibitor of Kallikrein can be determined using a relevant purified serine protease, and an appropriate synthetic substrate. The rate of hydrolysis of the chromogenic or fluorogenic substrate by the relevant serine protease was measured both in the absence and presence of compounds of the present invention. Assays were conducted at room temperature or at 37° C. […] A decrease in the rate of fluorescence change in the presence of inhibitor is indicative of enzyme inhibition. Such methods are known to one skilled in the art. The results of this assay are expressed as the half-maximal inhibitory concentrations (IC50), or the inhibitory constant, Ki.
# Kallikrein determinations were made in 50 mM HEPES buffer at pH 7.4 containing 150 mM NaCl, 5 mM CaCl2, and 0.1% PEG 8000 (polyethylene glycol; Fisher Scientific). Determinations were made using purified Human plasma kallikrein at a final concentration of 0.5 nM (Enzyme Research Laboratories) and the synthetic substrate, Acetyl-K-P-R-AFC (Sigma # C6608) at a concentration of […].
# Times required to achieve equilibration between enzyme and inhibitor were determined in control experiments. The reactions were performed under linear progress curve conditions and fluorescence increase measured at 405 Ex/510 Em nm. […] IC50 was determined by inflection point from a four parameter logistic curve fit. Ki was calculated using the Cheng Prusoff equation, Ki=IC50/(1+([S]/Km)).
# [3] = biological target: human Factor XIa (Homo sapiens (Human), UniProt P03951); test: Factor XIa Assay; type: biochemical; details: human Factor XIa 0.04 nM, 30 min pre-incubation at 25° C., substrate GPR-AFC; read-out: FXIa IC50
# human Factor XIa, sequence (P03951 388-625): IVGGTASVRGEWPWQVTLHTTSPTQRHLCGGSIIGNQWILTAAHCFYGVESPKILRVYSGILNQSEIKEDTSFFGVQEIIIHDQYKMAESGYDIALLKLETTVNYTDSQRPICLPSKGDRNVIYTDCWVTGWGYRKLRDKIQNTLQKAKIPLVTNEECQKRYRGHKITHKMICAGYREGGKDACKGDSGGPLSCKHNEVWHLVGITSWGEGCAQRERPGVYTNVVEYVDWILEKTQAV
# human Factor XIa, sequence (P03951 19-387 partner): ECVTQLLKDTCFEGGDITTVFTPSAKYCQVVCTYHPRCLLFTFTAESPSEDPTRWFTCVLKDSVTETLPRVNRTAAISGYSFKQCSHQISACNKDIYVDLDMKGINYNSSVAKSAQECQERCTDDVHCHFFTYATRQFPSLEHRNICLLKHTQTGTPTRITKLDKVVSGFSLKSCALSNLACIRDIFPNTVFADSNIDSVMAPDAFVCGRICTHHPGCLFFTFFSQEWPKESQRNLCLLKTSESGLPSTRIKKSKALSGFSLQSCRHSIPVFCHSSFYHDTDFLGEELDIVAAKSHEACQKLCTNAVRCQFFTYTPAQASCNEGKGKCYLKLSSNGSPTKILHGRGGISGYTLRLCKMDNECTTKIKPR
# In short: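 IC50 values were obtained from four-parameter log(inhibitor)-response fits of % inhibition, then converted to Ki using Cheng-Prusoff. GPR-AFC hydrolysis was read at 400/505 nm after 60 min at 25 °C.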
Compound,IC50 [2],IC50 [3],aPTT (1.5x) [1]
"O=C(O)c1ccc(NC(=O)C(CC2CC2)c2ccc(-c3cc(Cl)ccc3OC(F)F)c[n+]2[O-])cc1 (single isomer, unassigned) [Example 7, (R)- or (S)-4-[(2-{5-[5-chloro-2-(difluoromethoxy)phenyl]-1-oxidopyridin-2-yl}-3-cyclopropylpropanoyl)amino] benzoic acid]",265 nM,7.6 nM,16.38 µM
"CCOc1ccc(Cl)c(F)c1-c1ccc(C(CC2CC2)C(=O)Nc2ccc(C(=O)O)cc2)[n+]([O-])c1 (single isomer, unassigned) [Example 9, (R)- or (S)-4-({2-[5-(3-chloro-6-ethoxy-2-fluorophenyl)-1-oxidopyridin-2-yl]-3-cyclopropylpropanoyl}amino) benzoic acid]",857 nM,9 nM,13 µM
"O=C(O)c1ccc(NC(=O)C(CC2CCC2)c2ccc(-c3c(OC(F)F)ccc(Cl)c3F)c[n+]2[O-])cc1 (single isomer, unassigned) [Example 15, (R)- or (S)-4-[(2-{5-[3-chloro-6-(difluoromethoxy)-2-fluorophenyl]-1-oxidopyridin-2-yl}-3-cyclobutylpropanoyl)amino] benzoic acid]",20 nM,0.56 nM,0.75 µM
"O=C(O)c1ccc(NC(=O)C(CC2CCCC2)c2ccc(-c3c(OC(F)F)ccc(Cl)c3F)c[n+]2[O-])cc1 (single isomer, unassigned) [Example 19, (R)- or (S)-4-[(2-{5-[3-chloro-6-(difluoromethoxy)-2-fluorophenyl]-1-oxidopyridin-2-yl}-3-cyclopentylpropanoyl)amino] benzoic acid]",20 nM,0.45 nM,1.3 µM
"O=C(O)c1ccc(NC(=O)C(CC2CC2)c2ccc(-c3cc(Cl)ccc3C(F)(F)F)c[n+]2[O-])cc1 (single isomer, unassigned) [Example 25, (R)- or (S)-2-(1-((4-carboxyphenyl)amino)-3-cyclopropyl-1-oxopropan-2-yl)-5-(5-chloro-2-(trifluoromethyl)phenyl)pyridine 1-oxide]",756 nM,16 nM,10.28 µM

# The next lines start with results.
IC50 [2],IC50 [3],Compound,aPTT (1.5x) [1]
162 nM,2.8 nM,"O=C(O)c1ccc(NC(=O)C(CC2CC2)c2ccc(-c3c(C(F)(F)F)ccc(Cl)c3F)c[n+]2[O-])cc1 (single isomer, unassigned) [Example 27, (R)- or (S)-2-(1-((4-carboxyphenyl)amino)-3-cyclopropyl-1-oxopropan-2-yl)-5-(3-chloro-2-fluoro-6-(trifluoromethyl)phenyl)pyridine 1-oxide]",2.68 µM
84 nM,4.3 nM,"O=C(O)c1ccc(NC(=O)C(CC2CC2)c2ccc(-c3cc(Cl)ccc3C(F)F)c[n+]2[O-])cc1 (single isomer, unassigned) [Example 29, (R)- or (S)-2-(1-((4-carboxyphenyl)amino)-3-cyclopropyl-1-oxopropan-2-yl)-5-(5-chloro-2-(difluoromethyl)phenyl)pyridine 1-oxide]",2.07 µM
5.7 nM,0.33 nM,"O=C(O)c1ccc(NC(=O)C(C[C@H]2CC[C@H](O)CC2)c2ccc(-c3c(C(F)F)ccc(Cl)c3F)c[n+]2[O-])cc1 (single isomer, unassigned) [Example 37, (R)- or (S)-2-(1-((4-carboxyphenyl)amino)-3-((1r,4r)-4-hydroxycyclohexyl)-1-oxopropan-2-yl)-5-(3-chloro-6-(difluoromethyl)-2-fluorophenyl)pyridine 1-oxide]",0.4 µM
20 nM,0.45 nM,"C[C@]1(O)CC[C@H](CC(C(=O)Nc2ccc(C(=O)O)cc2)c2ccc(-c3c(OC(F)F)ccc(Cl)c3F)c[n+]2[O-])CC1 (single isomer, unassigned) [Example 43, 2-(1-((4-carboxyphenyl)amino)-3-((1r,4r)-4-hydroxy-4-methylcyclohexyl)-1-oxopropan-2-yl)-5-(3-chloro-6-(difluoromethoxy)-2-fluorophenyl)pyridine 1-oxide]",0.55 µM
